Laboratory results published in US8779120B2, “Macrocyclic derivatives of glycolurils, and methods of preparing and using the same” (Masarykova Univerzita, priority 2009, dated 2014).

How the values were obtained:
[1] = 1H NMR competition of dodecamethylbambus[6]uril-HCl complex with tetrabutylammonium iodide, association constant; format: binding; conditions: CD3OD:CDCl3=2:1, equimolar mixture, overall concentration 5 mM
Experimental: (§1) Equimolar mixture of dodecamethylbambus[6]uril-HCl complex and tetrabutylammonium bearing bromide, iodide, and tetrafluoroborate anions was dissolved in the mixture of CD3OD:CDCl3=2:1 to obtain solution in which overall concentration of dissolved solids was 5 mM. In all cases obtained ^1H NMR spectrum was identical with the spectrum of corresponding complex (see Example 20-22). As signals corresponding to dodecamethylbambus[6]uril-HCl complex were not observed the value of association constants for all complexes was calculated to be higher than 5×10^4 M^−1.

[2] = 1H NMR competition of dodecamethylbambus[6]uril-HCl complex with tetrabutylammonium bromide, association constant; format: binding; conditions: CD3OD:CDCl3=2:1, equimolar mixture, overall concentration 5 mM
Experimental: as §1

[3] = 1H NMR competition of dodecamethylbambus[6]uril-HCl complex with tetrabutylammonium tetrafluoroborate, association constant; format: binding; conditions: CD3OD:CDCl3=2:1, equimolar mixture, overall concentration 5 mM
Experimental: as §1

[4] = Solubility of anion free macrocycle in studied solvent systems; format: physicochemical; conditions: anion free form; chloroform, methanol, DMSO, acetonitrile, water or the mixtures of these solvents
Experimental: Dodecamethylbambus[6]uril-HI complex (0.5 g) was dissolved in the mixture of chloroform (50 ml) and methanol (50 ml). 30% H2O2 (0.25 ml) was added and the solution was stirred at room temperature for 24 h. The resulting white precipitate was collected by filtration and washed with equimolar mixture of chloroform and methanol. […] When tetrabutylammonium bearing bromide, iodide, and tetrafluoroborate anions is added to the suspension of obtained white powder in equimolar mixture of chloroform and methanol the immediate formation of transparent solution was observed. ^1H NMR spectra of the solutions correspond to the spectra of the complex between dodecamethylbambus[6]uril and corresponding anion.
Titanium dioxide powder (Aeroxide P25, typically 0.1 mg) was suspended in a solution of dodecamethylbambus[6]uril-HI complex (5.0 mM) in acetonitrile/water (1:1, 0.5 mL) in a standard quartz UV cuvette. The mixture was purged with oxygen for 5 min and irradiated at either wave lengths 254 or 366 nm. After 4 h white precipitated of anion free dodecamethylbambus[6]uril was obtained in 87% yield. […]

## CN1C(=O)N(C)[C@@H]2[C@H]1N1CN3C(=O)N(CN4C(=O)N(CN5C(=O)N(CN6C(=O)N(CN7C(=O)N(CN2C1=O)[C@@H]1[C@H]7N(C)C(=O)N1C)[C@@H]1[C@H]6N(C)C(=O)N1C)[C@@H]1[C@H]5N(C)C(=O)N1C)[C@@H]1[C@H]4N(C)C(=O)N1C)[C@@H]1[C@H]3N(C)C(=O)N1C [dodecamethylbambus[6]uril, Dodecamethylbambus[6]uril]
[1]
  association constant of complex with iodide anion: higher than 5×10^4 M^−1
[2]
  association constant of complex with bromide anion: higher than 5×10^4 M^−1
[3]
  association constant of complex with tetrafluoroborate anion: higher than 5×10^4 M^−1
[4]
  solubility of the anion free powder: does not dissolve
